Patent publication US20210315881A1, “COMBINATION OF HISTONE DEACETYLASE INHIBITOR AND PROTEIN KINASE INHIBITOR AND PHARMACEUTICAL USE THEREOF” (SHENZHEN CHIPSCREEN BIOSCIENCES CO., LTD., priority 2018, published 2021)

Legend:
[1] = tested on: Bel-7404 cells; assay: Cell apoptosis by Caspase 3/7 assay; assay type: cell-based, human; conditions: Bel-7404, 3 μM Chiauranib monotreatment, 48 hours
Procedure: (§1) Human hepatoma cell line Bel-7402 and Bel-7404 were purchased from the Cell Resource Center of Shanghai Institutes for Biological Sciences, CAS, and routinely cultured at 37° C. under 5% CO2, in a culture medium of RPMI-1640 (Gibco) containing 10% fetal bovine serum (FBS; Gibco) and 1% Penicillin-Streptomycin (HyClone). Trypsin was purchased from Gibco. Crystal violet, RNase A (10 mg/mL) solution, propidium iodide (PI), Triton X-100 were purchased from Sangon Biotech (Shanghai) Co., Ltd. MTS cell viability assay kits, Caspase-Glo 3/7 assay kits were purchased from Promega. Nude mice were purchased from Guangdong Medical Laboratory Animal Center.
The cells of Bel-7404 at the log phase stage were digested by trypsin, collected and counted. The cells were seeded in a 96-well plate at density of 2000 cells per well in a total of 18 wells. […]
The 96-well plates containing the treated cells were taken out of the incubator and equilibrated to room temperature. […] The […] value of each sample was measured by a luminometer. The […] value can directly reflect the proportion of apoptotic cells in each well, and can be used to calculate and compare the cell viability of the different groups.

[2] = tested on: Bel-7404 cells; assay: Cell cycle analysis by flow cytometry with PI staining; assay type: cell-based, human; conditions: Bel-7404, 3 μM Chiauranib, 48 hours
Procedure: as §1
The cells of Bel-7404 at the log phase stage were digested by trypsin, collected and counted. The cells were seeded in a 6-well plate at the density of 10^6 cells per well in a total of 18 wells. […] The fixed samples were allowed to stand at 4° C. for more than 12 hours, and analyzed by the flow cytometry assay within 1 week.
PBS, 10 mg/mL PI stock solution, 10 mg/mL RNase A solution and Triton X-100 were mixed at a ratio of 1000:5:2:1 to form a working dye solution. […] The filtrate was analyzed for cell cycles by the flow cytometry assay (each sample counted 20,000 cells).

[3] = tested on: Bel-7404 cell xenograft; assay: Tumor cell xenograft model in nude mice; assay type: in vivo; conditions: 2.5 mg/kg Chiauranib, intragastrically once a day, 33 days, vs solvent control
Procedure: The cells of Bel-7404 were cultured to expend to a large amount, and maintained at a log phase state. After the number of the cells reached the required amount, they were digested with trypsin, collected, washed twice with a large amount of PBS to remove the trypsin and serum, and centrifuged at 800 rpm for 10 min at room temperature and the cell supernatants were discarded. The cells were resuspended in the FBS-free RPIM-1640 culture medium, and adjusted the cell density to 10^7/300 μL.
Under aseptic conditions, each nude mouse was injected subcutaneously on the back with 300 μL/injection, one injection per nude mouse. A 1 mL disposable medical syringe for injection was used, and the injection site and direction were roughly same for each nude mouse.
One day after cell implanting, the nude mice were randomly divided into four groups (namely, solvent control group, Chiauranib 2.5 mg/kg group, Chidamide 20 mg/kg group and the combined administration group), housed in separate cages after marked, administered in groups and tumor formation of each mouse was observed every day. […] Every 2 days, the longest diameter of the tumor (length) and the widest diameter (width) perpendicular to the longest diameter were measured with a vernier caliper. The tumor volume was calculated by the formula TS=length×(width)^2/2 and recorded. […]

[4] = tested on: Bel-7402 cells; assay: MTS cell viability assay; assay type: cell-based, human; conditions: Bel-7402, monotreatment, 120 hours, dose-dependent
Procedure: as §1
(§2) The Bel-7402, Bel-7404 cell lines were digested by trypsin, collected and counted, and then seeded in a 96-well cell culture plate at the density of 3,000 cells/180 μL in each well, and cultured at 37° C. under 5% CO2. […] After incubation at 37° C. for about 1 hour, the absorbance of each well was read at 490 nm wavelength with a microplate reader. The OD490-T value of each administered well and the OD490-T0 value of the negative control well after background deduction were obtained by subtracting OD490-BLK from the absorbance reading value of each well.
(§3) The relative survival rate of the cells in each administered well was calculated according to the following formula: […]

[5] = tested on: Bel-7404 cells; assay: MTS cell viability assay; assay type: cell-based, human; conditions: Bel-7404, monotreatment, 120 hours, dose-dependent
Procedure: as §1, §2, §3

[6] = tested on: SMMC-7721 cells; assay: Colony forming assay (crystal violet); assay type: cell-based; conditions: SMMC-7721, Chiauranib monotreatment 5 μM, 2-3 weeks
Procedure: (§4) The SMMC-7721, Bel-7404 cell lines at the log phase stage were digested by trypsin, collected and counted, then seeded in a 6-well cell culture plate at the density of 500 cells/1.8 mL in each well, and cultured at 37° C. under 5% CO2. After cultured overnight, the cells were administered according to the grouping and the final concentration dosages shown in FIG. 2 (the final volume of each well after administration was 2 mL). The culture media and drugs were replaced every 3 days to keep the culture system and the dosage for each well stable.
After cultured for 2-3 weeks, when there were visible cell colonies in the culture plate, the culture was terminated. The supernatants were discarded, and the plate was washed carefully with PBS twice. 1 mL of 75% ethanol solution was added to each well to fix the cells, and the fixative solution was discarded after 15 min. Then the cells were stained for 15 min by adding 1 mL of crystal violet solution to each well, and the staining solution was washed slowly with running water and air dried. The stained positive cell colonies in each well of the culture plate were photographed to compare their density.

[7] = tested on: Bel-7404 cells; assay: Colony forming assay (crystal violet); assay type: cell-based, human; conditions: Bel-7404, Chiauranib monotreatment 3 μM, 2-3 weeks
Procedure: as §1, §4
After cultured for 2-3 weeks, when there were visible cell colonies in the culture plate, the culture was terminated. The supernatants were discarded, and the plate was washed carefully with PBS twice. […]

SMILES: COc1ccc2c(Oc3ccc4c(C(=O)Nc5ccccc5N)cccc4c3)ccnc2c1 [Chiauranib]
- proportion of apoptotic cells [1]: increased the proportion of apoptotic cells to a certain extent
- cells in G2/M phase and polyploid cells [2]: slightly increased
- tumor volume of tumor-bearing nude mice [3]: inhibited to a certain extent
- inhibitory effect on tumor cell proliferation (survival rate) [4]: a certain inhibitory effect on tumor cell proliferation
- inhibitory effect on tumor cell proliferation (survival rate) [5]: a certain inhibitory effect on tumor cell proliferation
- formation of cell colonies [6]: relatively significant effect on the formation of cell colonies
- formation of cell colonies [7]: affected somewhat on the formation of cell colonies
